Source: the NIST ThermoML archive (doi:10.1021/je800110r)
Numbers after ± are expanded uncertainties.

Settings: Liquid, Vibrating tube method

CCCCCCCCCC [decane]
Settings	mass density [kg/m3]
303.14 K, 3518 kPa	725.1 ± 2
303.15 K, 1065 kPa	723 ± 2
303.15 K, 1099 kPa	723.2 ± 2
303.15 K, 1144 kPa	723.2 ± 2
303.15 K, 1175 kPa	723.2 ± 2
303.15 K, 1261 kPa	723.3 ± 2
303.15 K, 1325 kPa	723.2 ± 2
303.15 K, 1363 kPa	723.2 ± 2
303.15 K, 1385 kPa	723.3 ± 2
303.15 K, 2849 kPa	724.6 ± 2
303.15 K, 2899 kPa	724.6 ± 2
303.15 K, 2942 kPa	724.7 ± 2
303.15 K, 2968 kPa	724.7 ± 2
303.15 K, 3005 kPa	724.8 ± 2
303.15 K, 3039 kPa	724.6 ± 2
303.15 K, 3070 kPa	724.7 ± 2
303.15 K, 3105 kPa	724.8 ± 2
303.15 K, 3140 kPa	724.8 ± 2
303.15 K, 3167 kPa	724.9 ± 2
303.15 K, 3207 kPa	724.8 ± 2
303.15 K, 3250 kPa	724.9 ± 2
303.15 K, 3283 kPa	725 ± 2
303.15 K, 3333 kPa	724.9 ± 2
303.15 K, 3363 kPa	725 ± 2
303.15 K, 3400 kPa	725 ± 2
303.15 K, 3487 kPa	725.1 ± 2
303.15 K, 3503 kPa	724.9 ± 2
303.15 K, 3530 kPa	725.1 ± 2
303.15 K, 3542 kPa	725 ± 2
303.15 K, 3556 kPa	725.2 ± 2
303.15 K, 3568 kPa	725.1 ± 2
303.15 K, 3587 kPa	725.2 ± 2
303.15 K, 3606 kPa	725.2 ± 2
303.15 K, 3618 kPa	725.1 ± 2
303.15 K, 3637 kPa	725.3 ± 2
303.15 K, 3655 kPa	725.2 ± 2
303.15 K, 3668 kPa	725.4 ± 2
303.15 K, 3688 kPa	725.3 ± 2
303.15 K, 3707 kPa	725.2 ± 2
303.15 K, 3720 kPa	725.3 ± 2
303.15 K, 3735 kPa	725.3 ± 2
303.15 K, 3753 kPa	725.3 ± 2
303.15 K, 3770 kPa	725.3 ± 2
303.15 K, 3790 kPa	725.3 ± 2
303.15 K, 3808 kPa	725.3 ± 2
303.15 K, 3820 kPa	725.3 ± 2
303.15 K, 3840 kPa	725.4 ± 2
303.15 K, 3855 kPa	725.4 ± 2
303.15 K, 3871 kPa	725.3 ± 2
303.15 K, 3885 kPa	725.3 ± 2
303.15 K, 3902 kPa	725.5 ± 2
303.15 K, 3916 kPa	725.5 ± 2
303.15 K, 3938 kPa	725.5 ± 2
303.15 K, 3958 kPa	725.4 ± 2
303.15 K, 3974 kPa	725.4 ± 2
303.15 K, 3988 kPa	725.4 ± 2
303.15 K, 4013 kPa	725.5 ± 2
303.15 K, 4029 kPa	725.5 ± 2
303.15 K, 4042 kPa	725.6 ± 2
303.15 K, 4059 kPa	725.5 ± 2
303.15 K, 4074 kPa	725.5 ± 2
303.15 K, 4089 kPa	725.6 ± 2
303.15 K, 4104 kPa	725.6 ± 2
303.15 K, 4122 kPa	725.6 ± 2
303.15 K, 4137 kPa	725.5 ± 2
303.15 K, 4153 kPa	725.7 ± 2
303.15 K, 4172 kPa	725.7 ± 2
303.15 K, 4188 kPa	725.7 ± 2
